Results taken from patent US20070031534A1, “Pet food for reducing food allergy reactions” (priority 2004, published 2007).

Tested on: dogs subject to food allergies
Assay: Owner-marked itching scores of dogs subject to food allergies fed with the dog food
Format: in vivo
Conditions: case No.1, before feeding with the dog food
Method: A dog food (dog food for food allergy) composed of raw materials as listed in Table 3 and Table 4 below was prepared according to the above Example 1. Dogs subject to food allergies were fed with this dog food and then the itching scores of these dogs were determined.
The following 2 cases are described in detail. (a) Detailed description of case No.1 (i) Changes (−1) in itching scores

In the case of `C[C@]12C=CC(=O)C=C1CC[C@@H]1[C@@H]2[C@@H](O)C[C@@]2(C)[C@H]1CC[C@]2(O)C(=O)CO` [predonine], the “itching on administration of steroid drug” value was “further suppressed”.
